Measured values: US20150017665A1, “Peptides and Methods for Detecting MPO-ANCA” (The University of North Carolina at Chapel Hill, priority 2012, published 2015)

Tests used:
MPO-ANCA [1] = experiment: Epitope excision MALDI-TOF/TOF MS of patient and healthy Ig with native MPO; type: binding; set-up: key: HC: Healthy control; Active disease; Remission; conditions: human Ig
Excerpt: Total immunoglobulin (IgG) was purified from sera using protein A/G PLUS-Agarose Reagent according to commercial protocol (Santa Cruz Biotechnology). Purified IgG was immobilized on CNBr-activated Sepharose 4B (GE Healthcare) in compact reaction columns (CRC, USB Corporation) and exposed to native MPO protein (MPO, Elastin Products Co, Inc) followed by digestion with sequencing grade TPCK-treated trypsin (Worthington). MPO-peptides remaining bound to IgG after digestion were eluted with 0.1% trifluoro acetic acid and analyzed on a 4800 Plus Matrix-Assisted Laser Desorption Ionization Time of Flight Mass Spectrometry (MALDI TOF/TOF MS/MS) in conjunction with ProteinPilot software (AB SCIEX).
To identify epitopes of low titer autoantibodies, ^18O labeling (Mirza et al., J. Proteome Res. 7:3042 (2008)) was used to differentiate between the signal and the noise in the MS and MSMS spectra using the 4 Da shifts between the corresponding spectra of labeled and non-labeled peptides. Mass spectrometry analysis for epitopes recognized by MPO autoantibodies from healthy individuals, and for detection of low ANCA titers in remission samples required the use of isotope H2^18O to increase sensitivity (Cambridge Isotope Laboratories). Samples from healthy individuals (n=10) and MPO-ANCA patients in clinical remission (n=35) were processed in the presence of H2^18O. Incorporation of H2^18O on the carboxyl terminus of each proteolytic fragment of MPO during tryptic digestion, trypsin buffer was made with the isotope H2^18O as a diluent.
MPO-ANCA positive patients (n=45) from the University of North Carolina cohort (UNC) were analyzed in the initial studies. Demographics of the cohort (Table 2) indicate a predominantly Caucasian group. Approximately 40% are diagnosed with microscopic polyangiitis (MPA), 40% with renal-limited disease and 20% are diagnosed with granulomatosis with polyangiitis (GPA). To compare epitope specificities related to disease activity, longitudinal samples were analyzed to include active disease (n=52) and remission (n=35) from the UNC cohort (Tables 3 and 4). Ten healthy subjects were included in the analyses. Purified immunoglobulin (Ig) from sera samples was subjected to analysis by epitope excision MALDI-TOF/TOF mass spectrometry (depicted in FIG. 3A) to identify epitope profiles of autoantibodies reactive with MPO. In order to epitope map low titer anti-MPO antibodies from healthy subjects and from patients in disease remission, an approach was designed using the ^16O-to-^18O exchange technique, an adaptation of a proteomics-based quantification method (Mirza et al., J. Proteome Res. 7:3042 (2008)). Incorporation of H2^18O on the carboxyl termini of proteolytic fragments produces a 4 Da mass shift in the MS spectra, decipherable from background noise. MPO epitopes unique to Ig from patients with active disease were designated ‘exclusive to active disease’; epitopes identified in remission samples were designated ‘persistent during remission’; and those present in samples from healthy subjects were designated asymptomatic or ‘natural’.

[2] = system: anti-MPO antibodies of immunized DR2 Tg mice; experiment: Epitope excision MS of IgG from immunized DR2 Tg mice with recombinant mouse MPO; type: binding; conditions: DR2 Tg mice immunized with MPO aa442-460
Description: Mass spectrometry analysis of ANCA-negative IgG and mouse IgG samples were conducted as above. With the exception of protein substrate, immobilized ANCA-negative IgG were exposed to whole leukocyte lysate preparation from a healthy donor and mouse IgG to recombinant mouse MPO (R&D Systems).
As HLA-MHC II help shape the B and T cell repertoires, and consequently the response to foreign and self-antigens, we wanted to define the epitope specificity of the anti-MPO autoantibodies that could be induced experimentally using DR2 Tg mice. In this way, we could assess development of the anti-MPO antibody response after immunization of a single epitope in the context of a human MHC II. IgG from sera of immunized mice was profiled for anti-MPO epitope specificity using epitope excision MS. DR2 Tg mice developed antibodies targeting the human B cell epitope aa447-459 which is within a conserved region of both murine and human MPO. Unpredictably, immunized DR2 Tg mice initiated a polyclonal response producing autoantibodies against the entire MPO molecule. The epitope profile was astonishingly similar to that of the MPO-ANCA human profile (Table 6), indicative of the critical nature of this epitope.

MPO-ANCA [3] = experiment: Peptide ELISA with total IgG (Chapel Hill and Groningen); type: binding, human
Description: A total of 195 IgG samples were tested by native MPO or peptide ELISA. Samples included those from healthy controls (n=59), active disease (n=80) and remission patients (n=56). Total IgG was added to wells (2 μg/well) precoated with 1-2 μg peptide (UNC-CH peptide synthesis core). Goat anti-human with alkaline phosphatase conjugate secondary antibody specific to IgG (H+L) (Millipore, Billerica, Mass.) (1:10,000) was added and detected using 1-Step PNPP substrate (Thermo Scientific) and read at λ=405 nm after 30 min. Identical peptides were used in ELISAs at both locations; all other substrates used to test NL cohort samples by ELISAs were prepared in Groningen. Total IgG (1:500˜2 mg/well) was added to precoated wells blocked with 1% BSA. Secondary antibody, goat anti-human conjugated with alkaline phosphatase (A5403; Sigma-Aldrich) (1:5000), was added and detected using p-nitrophenyl-phosphate disodium substrate.

Row | Substance | Found in samples: Healthy control, Active disease, or Remission, (HC, A, R) (MPO-ANCA [1]; Table 1) | Found in samples: Healthy control, Active disease, or Remission, (HC, A, R) (MPO-ANCA [1]; Table 6) | Epitopes found in immunized mice [2] | ELISA reactivity in clinical remission (MPO-ANCA [3]; UNC and NL cohorts, remission samples) | ELISA reactivity with Ig from active disease samples (MPO-ANCA [3]; active disease samples)
1 | NGFPVALAR (listed as Homo sapiens) [aa220-228] | A | A | – | – | –
2 | NNIFMSNTYPR (listed as Homo sapiens) [aa715-725] | A | A | NNIFMSNTYPR | – | –
3 | NQINALTSFVDASMV (listed as Homo sapiens) [aa328-351] | A | A | – | – | –
4 | QALAQISLPR (listed as Homo sapiens) [aa692-701] | A ,R | A, R | – | – | –
5 | QNQIAVDEIR (listed as Homo sapiens) [aa560-571] | A, R | A, R | – | – | –
6 | RDYLPLVLGPTAMR (listed as Homo sapiens) [aa460-473] | A, R, HC | A, R, HC | – | – | –
7 | RSPTLGASNR (listed as Homo sapiens) [aa184-193] | A | A | RSPTLGASNR | – | –
8 | VFFASWR (listed as Homo sapiens) [aa530-536] | A, R, HC | A, R, HC | VFFASWR | – | –
9 | VGPLLACI (listed as Homo sapiens) [aa657-664] | A | A | – | – | –
10 | VVLEGGIDPILR (listed as Homo sapiens) [aa537-548] | A | A | VVLEGGIDPILR | – | –
11 | WDGER (listed as Homo sapiens) [aa437-441] | A, R | A, R | – | – | –
12 | WLPAEYEDGFSLPYG (listed as Homo sapiens) [aa198-219] | A | A | – | – | –
13 | YQPMEPNPR (listed as Homo sapiens) [aa516-524] | A, R, HC | A, R, HC | – | reactivity was found in remission samples in both cohorts | reactive with Ig from active disease samples
